Reference: patent US7705156B2, “Heteroaryl (substituted)alkyl N-substituted sulfoximines as insecticides” (Dow AgroSciences LLC, priority 2006, dated 2010)
Where two headings read alike, the source gives them in different places.

What was measured:
[1] = test system: Cotton Aphid (Aphis gossvpii); test: Insecticidal test for cotton aphid in foliar spray assay; assay type: in vivo; details: for % Control at ppm against cotton aphid on squash, foliar spray, 0.781 ppm / % Control at ppm against cotton aphid on squash, foliar spray, 3.125 ppm / % Control at ppm against cotton aphid on squash, foliar spray, 12.5 ppm / % Control at ppm against cotton aphid on squash, foliar spray, 50 ppm: rundown assay; for pest or weed control at 50 ppm / pest or weed control at 200 ppm: 72 h; for pest or weed control at 50 ppm: read-out: CA 50: % control at 50 ppm against cotton aphid in foliar spray tests; for pest or weed control at 200 ppm: read-out: CA 200: % control at 200 ppm against cotton aphid in foliar spray tests
Protocol: Insecticidal Test for Cotton Aphid (Aphis gossvpii) in Foliar Spray Assay
Squash with fully expanded cotyledon leaves were trimmed to one cotyledon per plant and infested with cotton aphid (wingless adult and nymph) 1 day prior to chemical application. Each plant was examined before chemical application to ensure proper infestation (ca. 30-70 aphids per plant). Compounds (2 mg) were dissolved in 2 ml of acetone:methanol (1:1) solvent, forming stock solutions of 1000 ppm. The stock solutions were diluted 5× with 0.025% Tween 20 in H2O to obtain the highest test solution at 200 ppm. Lower test concentrations (50, 12.5, 3.13 and 0.78 ppm) were prepared by making sequential 4× dilutions from the 200 ppm solution with a diluent consisting 80 parts of 0.025% Tween 20 in H2O and 20 parts of acetone:methanol (1:1). A hand-held Devilbiss sprayer was used to apply the spray solutions until runoff to both sides of the squash cotyledon leaves. Four plants (4 replications) were used for each concentration of each compound. Reference plants (solvent check) were sprayed with the diluent only. Treated plants were held in a holding room for 3 days at approximately 23° C. and 40% RH before the number of live aphids on each plant was recorded. Insecticidal activity was measured by Corrected % Control using Abbott's correction formula and the values for the lower test concentrations are presented in Table 2: Corrected % Control=100*(X−Y)/X • where X=No. of live aphids on solvent check plants • Y=No. of live aphids on treated plants Insecticidal Test for Green Peach Aphid (Myzus persicae) in Foliar Spray Assay

[2] = test system: Green Peach Aphid (Myzus persicae); test: Insecticidal test for green peach aphid in foliar spray assay; assay type: in vivo; details: 72 h, foliar spray on cabbage seedlings, 3 days, Abbott-corrected; for pest or weed control at 50 ppm: read-out: GPA 50: % control at 50 ppm against green peach aphid in foliar spray tests; for pest or weed control at 200 ppm: read-out: GPA 200: % control at 200 ppm against green peach aphid in foliar spray tests
Protocol: Cabbage seedlings grown in 3-inch pots, with 2-3 small (3-5 cm) true leaves, were used as test substrate. The seedlings were infested with 20-50 green peach aphids (wingless adult and nymph) 2-3 days prior to chemical application. Four seedlings were used for each treatment. Compounds (2 mg) were dissolved in 2 ml of acetone:methanol (1:1) solvent, forming stock solutions of 1000 ppm. The stock solutions were diluted 5× with 0.025% Tween 20 in H2O to obtain the highest test solution at 200 ppm. A lower test concentration of 50 ppm was prepared by making a 4× dilution from the 200 ppm solution with a diluent consisting 80 parts of 0.025% Tween 20 in H2O and 20 parts of acetone: methanol (1:1). A hand-held Devilbiss sprayer was used for spraying a solution to both sides of cabbage leaves until runoff. Reference plants (solvent check) were sprayed with the diluent only. Treated plants were held in a holding room for three days at approximately 23° C. and 40% RH prior to grading. Evaluation was conducted by counting the number of live aphids per plant under a microscope. Insecticidal activity was measured by using Abbott's correction formula: Corrected % Control=100*(X−Y)/X • where X=No. of live aphids on solvent check plants • Y=No. of live aphids on treated plants The Corrected % Control values from the above assays are given in Table 2

[3] = 50 ppm, foliar spray on squash, 3 days, Abbott-corrected
[4] = 200 ppm, foliar spray on squash, 3 days, Abbott-corrected

| Structure (SMILES) | % Control at ppm against cotton aphid on squash, foliar spray, 0.781 ppm [1] | % Control at ppm against cotton aphid on squash, foliar spray, 3.125 ppm [1] | % Control at ppm against cotton aphid on squash, foliar spray, 12.5 ppm [1] | % Control at ppm against cotton aphid on squash, foliar spray, 50 ppm ([1]; 50 ppm) | pest or weed control at 50 ppm [1, 3] [%] | pest or weed control at 200 ppm [1, 4] [%] | pest or weed control at 50 ppm [2] [%] | pest or weed control at 200 ppm [2] [%] | pest or weed control at 50 ppm ([1]; foliar) [%] | pest or weed control at 200 ppm ([1]; foliar) [%] |
| --- | --- | --- | --- | --- | --- | --- | --- | --- | --- | --- |
| CS(=O)(=NC#N)C(C/C=C/Cl)c1ccc(C(F)(F)F)nc1 (stereo not shown) [Compound 17] | D (60-69) | B (80-89) | A (90-100) | A (90-100) | 90 to 100 | 90 to 100 | 70 to 79 | 90 to 100 |  |  |
| COc1ccc(CC(c2ccc(Cl)nc2)S(C)(=O)=NC#N)cc1 (stereo not shown) [Compound 8] |  |  |  |  | 90 to 100 | 90 to 100 |  |  |  |  |
| CS(=O)(=NC#N)[C@@H]1CCC[C@@H]1c1ccc(Cl)nc1 (stereo partly drawn) [Compound 3, cis-[2-(6-chloropyridin-3-yl)cyclopentyl](methyl)-oxido-λ^4-sulfanylidenecyanamide] |  |  |  |  |  | 60 to 69 |  | 60 to 69 |  |  |
| CS(=O)(=NC#N)C(CC1CC1)c1ccc(C(F)(F)F)nc1 (stereo not shown) [Compound 2, {1-[6-(trifluoromethyl)pyridin-3-yl]-2-(cyclopropyl)ethyl}(methyl)oxido-λ^4-sulfanylidenecyanamide] | C (70-79) | A (90-100) | A (90-100) | A (90-100) | 90 to 100 | 90 to 100 |  | 70 to 79 |  |  |
| CS(=O)(=NC#N)C(Cc1ccc(Cl)nc1)c1ccc(Cl)nc1 (stereo not shown) [Compound 6] |  |  |  |  | 90 to 100 | 90 to 100 |  |  |  |  |
| CC(C)C(c1ccc(Cl)nc1)S(C)(=O)=NC#N (stereo not shown) [Compound 9] |  |  |  |  | 90 to 100 | 90 to 100 |  |  |  |  |
| COCCC(c1ccc(Cl)nc1)S(C)(=O)=NC#N (stereo not shown) [Compound 10] |  |  |  |  | 90 to 100 | 90 to 100 |  | 60 to 69 |  |  |
| CS(=O)(=NC#N)C(C/C=C/Cl)c1ccc(Cl)nc1 (stereo not shown) [Compound 15] |  |  |  |  | 90 to 100 | 90 to 100 |  |  |  |  |
| C#CCC(c1ccc(Cl)nc1)S(C)(=O)=NC#N (stereo not shown) [Compound 14] |  |  |  |  | 90 to 100 | 90 to 100 |  |  |  |  |
| CS(=O)(=NC#N)C1CCC(c2ccc(Cl)nc2)C1 (stereo not drawn) [Compound 4, cis and trans-[3-(6-chloropyridin-3-yl)cyclopentyl]-(methyl)oxido-λ^4-sulfanylidenecyanamide] |  |  |  |  | 70 to 79 | 90 to 100 |  | 80 to 89 |  |  |
| COCC(COC)(c1ccc(Cl)nc1)S(C)(=O)=NC#N (stereo not shown) [Compound 11] |  |  |  |  | 90 to 100 | 90 to 100 |  |  |  |  |
| CS(=O)(=NC#N)C(CCF)c1ccc(Cl)nc1 (stereo not shown) [Compound 12] | A (90-100) | A (90-100) | A (90-100) | A (90-100) | 90 to 100 | 90 to 100 | 90 to 100 | 90 to 100 |  |  |
| CC(C)C(c1ccc(C(F)(F)F)nc1)S(C)(=O)=NC#N (stereo not shown) [Compound 18] | A (90-100) | A (90-100) | A (90-100) | A (90-100) | 90 to 100 | 90 to 100 | 60 to 69 | 90 to 100 |  |  |
| CS(=O)(=NC#N)C(CC1CC1)c1ccc(Cl)nc1 (stereo not shown) [Compound 13] |  |  |  |  | 90 to 100 | 90 to 100 |  |  |  |  |
| N#CN=S1(=O)CCC(c2ccc(C(F)(F)F)nc2)C1 (stereo not shown) [Compound 5, 1-oxido-3-[6-(trifluoromethyl)pyridin-3-yl]tetrahydro-1H-1λ^4-thien-1-ylidenecyanamide] | F (Less than 50) | C (70-79) | A (90-100) | A (90-100) | 90 to 100 | 90 to 100 | 50 to 59 | 80 to 89 |  |  |
| C#CCC(c1ccc(C(F)(F)F)nc1)S(C)(=O)=NC#N (stereo not shown) [Compound 16] | B (80-89) | A (90-100) | A (90-100) | A (90-100) | 90 to 100 | 90 to 100 | 80 to 89 | 90 to 100 |  |  |
| CS(=O)(=NC#N)C(Cc1ccc(Cl)cc1)c1ccc(Cl)nc1 (stereo not shown) [Compound 7] |  |  |  |  | 90 to 100 | 90 to 100 |  |  |  |  |
| CS(=O)(=NC#N)C(Cc1cscn1)c1ccc(Cl)nc1 (stereo not shown) [Compound 1, [1-(6-chloropyridin-3-yl)-2-(1,3-thiazol-4-yl)ethyl](methyl)oxido-λ^4-sulfanylidenecyanamide] |  |  |  |  |  |  |  |  | 90 to 100 | 90 to 100 |
